Non-standard residues stand in square brackets, D forms with d. Residues, ends and D or L forms follow the SMILES beside them. *: point of attachment. X3 = COc1cccc2c1C(=O)c1c(O)c3c(c(O)c1C2=O)C[C@@](O)(C(=O)COC(=O)CC(C)(C)CC(=O)*)C[C@@H]3O[C@H]1C[C@H](N)[C@H](O)[C@H](C)O1; X2 = COc1cc(/C=C/C(=O)CC(=O)/C=C/c2ccc(OC(=O)CC(C)(C)CC(=O)*)c(OC)c2)ccc1O; Nle = CCCC[C@H](N)C(=O)O
Legend:
[1] = test system: A-375 skin cancer cells; assay: [3H]-Thymidine incorporation cell proliferation assay, A-375; format: cell-based
Method: (§1) The effect of the Docetaxel-Katana peptide conjugate on various cell line proliferations was evaluated and compared to unconjugated Docetaxel (Table 4). IC50 values obtained for the Docetaxel-Katana peptide conjugate were very similar to those of Docetaxel in the cancer cells tested.
(§2) The phytochemical Curcumin, unconjugated and conjugated, was also tested on cancer cell proliferation (FIG. 28). Breast cancer cells (MDA-MB231) were incubated with increasing concentrations of KBC106 or curcumin. After 72 hrs, thymidine incorporation assay was performed to assess the anti-proliferative properties of both molecules. IC50 values were extracted from the anti-proliferative curves. […] Proliferation assay was also performed using different types of cancer cells (ovarian, breast, skin and colorectal cancer cells). IC50 values were calculated from the anti-proliferation curves. In all cases, the Curcumin conjugate (KBC106) had stronger anti-proliferative activity (9-100 fold) than unconjugated Curcumin, as shown in Table 6 below.
(§3) Cancer cells were cultured in 96-well white plates (Perkin Elmer). They were synchronized for 24 hours in serum-deprived medium. After incubation of cells with unconjugated drugs (docetaxel, cabazitaxel, doxorubicin) or with drug-Katana peptide conjugates for 2 or 3 days, all media was aspirated and cells were pulse-labeled for 4 hours at 37° C./[…]/5% CO2 with media containing 2.5 μCi/mL [methyl-3H] thymidine (Perkin Elmer). Cells were washed, fixed, and dried before addition of scintillation fluid (Microscint 0, Perkin Elmer). After 24 hours, cell-associated tritium was quantified by counting on a plate reader (TopCount, Perkin Elmer). Incorporated [3H] thymidine was plotted for each drug concentration.

[2] = test system: MDA-MB-231 breast cancer cells; assay: cells
Method: Breast cancer cells (MDA-MB231) were incubated with increasing concentrations of KBC106 or curcumin. After 72 hrs, thymidine incorporation assay was performed to assess the anti-proliferative properties of both molecules. IC50 values were extracted from the anti-proliferative curves.
as §2, with “curves.” for “curves. In all cases, the Curcumin conjugate (KBC106) had stronger anti-proliferative activity (9-100 fold) than unconjugated Curcumin, as shown in Table 6 below.”
as §3

[3] = test system: ES-2 ovarian cancer cells; assay: [3H]-Thymidine incorporation cell proliferation assay, ES-2; format: cell-based; details: ES-2 (Ovary)
Method: as §1, §2, §3

[4] = test system: SK-MEL-28 skin cancer cells; assay: [3H]-Thymidine incorporation cell proliferation assay, SK-MEL-28; format: cell-based
Method: as §1, §2, §3

[5] = test system: ES-2 ovarian cancer cells; assay: ES-2 ovarian subcutaneous tumors (Doxorubicin, KBB106); format: in vivo, mice; details: Day 14 post-treatment; equivalent dose of Doxorubicin 6 mg/kg/week
Method: 25A. Mice were implanted in the flank with ES-2 ovarian cancer cells. Tumor growth was measured using a caliper. When tumors reached a tumor volume of about 150 mm^3, mice were treated with Doxorubicin or KBB106 at an equivalent dose of Doxorubicin (6 mg/kg/week). 25B. […] 25C.
(§4) The effect of the conjugated and unconjugated Doxorubicin was also evaluated on ovarian subcutaneous tumors. Mice were implanted in the with ES-2 ovarian cancer cells. Tumor growth was measured using a caliper. When tumors reached a tumor volume of about 150 mm^3, mice were treated with Doxorubicin or Katana-Doxorubicin conjugate KBB106 at an equivalent dose of Doxorubicin (6 mg/kg/week).

[6] = target: T1, sortilin (Homo sapiens, UniProt Q99523); assay: Uptake of KBB106 in ovarian cancer cells with reduced sortilin expression; format: cell-based; details: ovarian cancer cells transfected with sortilin siRNA
T1 construct: Ovarian cancer cells were transfected with sortilin siRNA (siSortilin) for 24 hrs and then incubated with KBB106; endogenous in cells
T1 sequence (Q99523 78-831): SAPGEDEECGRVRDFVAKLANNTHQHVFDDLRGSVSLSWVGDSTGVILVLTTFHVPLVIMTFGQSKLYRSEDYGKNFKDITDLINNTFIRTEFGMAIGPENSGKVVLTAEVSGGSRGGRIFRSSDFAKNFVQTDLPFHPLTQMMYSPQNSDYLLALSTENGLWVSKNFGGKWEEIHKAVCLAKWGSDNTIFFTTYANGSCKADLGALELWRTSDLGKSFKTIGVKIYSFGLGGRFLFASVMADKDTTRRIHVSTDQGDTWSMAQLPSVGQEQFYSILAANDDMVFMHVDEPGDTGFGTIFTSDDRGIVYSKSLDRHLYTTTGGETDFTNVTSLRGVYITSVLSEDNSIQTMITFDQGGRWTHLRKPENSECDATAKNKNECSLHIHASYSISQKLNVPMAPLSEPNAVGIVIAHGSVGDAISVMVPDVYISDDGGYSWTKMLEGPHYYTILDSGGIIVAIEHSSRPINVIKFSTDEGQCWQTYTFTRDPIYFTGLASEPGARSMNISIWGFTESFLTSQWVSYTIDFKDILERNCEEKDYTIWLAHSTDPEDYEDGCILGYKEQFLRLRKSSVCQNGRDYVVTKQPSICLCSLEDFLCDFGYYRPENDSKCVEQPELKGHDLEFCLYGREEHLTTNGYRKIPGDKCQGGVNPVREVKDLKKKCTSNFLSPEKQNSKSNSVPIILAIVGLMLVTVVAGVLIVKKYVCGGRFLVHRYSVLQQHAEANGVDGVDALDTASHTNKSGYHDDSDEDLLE
Method: A. Ovarian cancer cells were transfected with sortilin siRNA (siSortilin) for 24 hrs and then incubated with KBB106. Accumulation of KBB106 was monitored by the released of fluorescent Doxorubicin as a function of time. B. Ovarian cancer cells were incubated with KBB106 in the presence or absence of sortilin ligand (Katana peptide, progranulin). KBB106 accumulation was estimated by the released of fluorescent Doxorubicin.
The uptake of the Katana conjugate is increased in cells expressing the sortilin receptor.

[7] = test system: SKOV3 ovarian cancer cells; assay: SKOV3 ovarian subcutaneous tumors (KBB106); details: KBB106 18 mg/kg/week
Method: 26A. Mice were implanted in the flank with SKOV3 ovarian cancer cells. When tumors reached a volume of about 150 mm^3, mice were treated with KBB106 (18 mg/kg/week) as indicated by the arrows. […] 26B. Body weight of mice was monitored during the treatments.
as §4

[8] = test system: HT-29 colorectal cancer cells; assay: cells; format: cell-based; details: Table 6
Method: as §2, §3

[9] = test system: HCC-1954 breast cancer cells; assay: cells; format: cell-based; details: HCC-1954 (HER2+; Lapatinib resistant); Table 6
Method: as §2, §3

[10] = test system: HCC-1569 breast cancer cells; assay: cells; format: cell-based; details: HCC-1569 (HER2+; Herceptin resistant); Table 6
Method: as §2, §3

[11] = Homo sapiens, A-375 (Skin), Table 4, 2 or 3 days
[12] = Homo sapiens, SK-MEL-28 (Skin), Table 4, 2 or 3 days

| IC50 [1, 11] [nM] | IC50 ([2]; Homo sapiens, MDA-MB-231) [nM] | IC50 ([3]; Table 4, 2 or 3 days) [nM] | IC50 [4, 12] [nM] | Compound | tumor volume decrease compared to the vehicle group [5] [%] | also measured |
| --- | --- | --- | --- | --- | --- | --- |
| 0.34 | 0.44 | 0.66 | 0.12 | CO[C@H]1C(=O)[C@]2(C)[C@@H](OC)C[C@H]3OC[C@@]3(OC(C)=O)[C@H]2[C@H](OC(=O)c2ccccc2)[C@]2(O)C[C@H](OC(=O)[C@H](O)[C@@H](NC(=O)OC(C)(C)C)c3ccccc3)C(C)=C1C2(C)C [Cabazitaxel, cabazitaxel] |  |  |
| 11.8 | 9.7 | 73.5 | 79.3 | COc1cccc2c1C(=O)c1c(O)c3c(c(O)c1C2=O)C[C@@](O)(C(=O)CO)C[C@@H]3O[C@H]1C[C@H](N)[C@H](O)[C@H](C)O1 [Doxorubicin, doxorubicin] | 43 |  |
|  |  |  |  | CCCC[C@H](NC(=O)[C@H](CC(N)=O)NC(=O)[C@H](CCCNC(=N)N)NC(=O)[C@@H](NC(=O)CNC(=O)[C@H](C)NC(=O)[C@H](CCCCNC(=O)CC(C)(C)CC(=O)OCC(=O)[C@]1(O)Cc2c(O)c3c(c(O)c2[C@@H](O[C@H]2C[C@H](N)[C@H](O)[C@H](C)O2)C1)C(=O)c1c(OC)cccc1C3=O)NC(=O)[C@H](C)NC(=O)[C@H](CCCNC(=N)N)NC(=O)[C@@H](NC(=O)CNC(C)=O)C(C)C)C(C)C)C(=O)N[C@@H](Cc1ccccc1)C(=O)N[C@@H](CCCCNC(=O)CC(C)(C)CC(=O)OCC(=O)[C@]1(O)Cc2c(O)c3c(c(O)c2[C@@H](O[C@H]2C[C@H](N)[C@H](O)[C@H](C)O2)C1)C(=O)c1c(OC)cccc1C3=O)C(=O)N[C@@H](CO)C(=O)N[C@@H](CCC(=O)O)C(=O)N[C@@H](CO)C(=O)N[C@@H](Cc1ccc(O)cc1)C(=O)O [KBB-106, Acetyl-GVRAK(doxorubicin)AGVRN(Nle)FK(doxorubicin)SESY] (Ac-GVRAK(X3)AGVRN[Nle]FK(X3)SESY-OH; C-terminus assumed) | 97 | uptake in cells where sortilin expression was reduced [6]: reduced; effect on body weight [7]: little effect on the body weight; progression of SKOV3 xenograft tumors [7]: significantly decreased compared to the control group |
|  |  |  |  | CCCC[C@H](NC(=O)[C@H](CC(N)=O)NC(=O)[C@H](CCCNC(=N)N)NC(=O)[C@@H](NC(=O)CNC(=O)[C@H](C)NC(=O)[C@H](CCCCNC(=O)CC(C)(C)CC(=O)Oc1ccc(/C=C/C(=O)CC(=O)/C=C/c2ccc(O)c(OC)c2)cc1OC)NC(=O)[C@H](C)NC(=O)[C@H](CCCNC(=N)N)NC(=O)[C@@H](NC(=O)CNC(C)=O)C(C)C)C(C)C)C(=O)N[C@@H](Cc1ccccc1)C(=O)N[C@@H](CCCCNC(=O)CC(C)(C)CC(=O)Oc1ccc(/C=C/C(=O)CC(=O)/C=C/c2ccc(O)c(OC)c2)cc1OC)C(=O)N[C@@H](CO)C(=O)N[C@@H](CCC(=O)O)C(=O)N[C@@H](CO)C(=O)N[C@@H](Cc1ccc(O)cc1)C(=O)O [KBC106, Acetyl-GVRAK(curcumin)AGVRN(Nle)FK(curcumin)SESY] (Ac-GVRAK(X2)AGVRN[Nle]FK(X2)SESY-OH; C-terminus assumed) |  | IC50 ([1]; A-375, Table 6): 326 nM; IC50 ([2]; MDA-MB231 (Triple negative), Table 6, 72 hrs): 135 nM; IC50 ([3]; Table 6): 1520 nM; IC50 [8]: 3600 nM; IC50 [9]: 1290 nM; IC50 [10]: 1010 nM; IC50 ([4]; SK-MEL-28, Table 6): 243 nM |
